# Source: ChEMBL document CHEMBL5143574, “Unraveling the anti-virulence potential and antifungal efficacy of 5-aminotetrazoles using the zebrafish model of disseminated candidiasis” (Eur J Med Chem, 2022)
# The source made the active and inactive calls. No cut-off for these calls is given here.
# Experiments:
# Candida albicans [1] = experiment: Anti-virulence activity against Candida albicans SC5314 assessed as inhibition of fungal filamentation by measuring reduction in hyphae formation in YPS plus uridine medium at 5 uM incubated for 3 to 5 days by stereomicroscopic analysis; assay type: functional, organism-based; details: time 3-5 day
# Candida albicans [2] = experiment: Antifungal activity against Candida albicans SC5314 assessed as inhibition of fungal growth incubated for 24 hrs by broth microdilution assay; assay type: functional
# Candida albicans [3] = experiment: Anti-virulence activity against Candida albicans SC5314 assessed as inhibition of fungal filamentation by measuring reduction in hyphae formation in Lee medium at 5 uM incubated for 3 to 5 days by stereomicroscopic analysis; assay type: functional, organism-based; details: time 3-5 day
# Candida albicans [4] = experiment: Anti-virulence activity against Candida albicans SC5314 assessed as inhibition of fungal filamentation by measuring reduction in hyphae formation in RPMI medium at 5 uM incubated for 3 to 5 days by stereomicroscopic analysis; assay type: functional, organism-based; details: time 3-5 day
# [5] = Toxicity in zebrafish embryos assessed as mortality treated at 6 hpf and measured at 120 hpf by stereomicroscopic analysis; design: species or system Danio rerio; details: in vivo
# Candida albicans [6] = experiment: Anti-virulence activity against Candida albicans SC5314 assessed as inhibition of fungal filamentation by measuring reduction in hyphae formation in YPS medium at 5 uM incubated for 3 to 5 days by stereomicroscopic analysis; assay type: functional, organism-based; details: time 3-5 day
# Candida albicans [7] = experiment: Anti-virulence activity against Candida albicans SC5314 assessed as inhibition of fungal filamentation by measuring reduction in hyphae formation in Spider medium at 5 uM incubated for 3 to 5 days by stereomicroscopic analysis; assay type: functional, organism-based; details: time 3-5 day
# Candida albicans [8] = experiment: Anti-virulence activity against Candida albicans SC5314 assessed as inhibition of fungal filamentation by measuring reduction in hyphae formation in YPS medium upto 10 uM incubated for 3 to 5 days by stereomicroscopic analysis; assay type: functional, organism-based; details: time 3-5 day
# Candida albicans [9] = experiment: Anti-virulence activity against Candida albicans SC5314 assessed as inhibition of fungal filamentation by measuring reduction in hyphae formation in YPS plus uridine medium upto 10 uM incubated for 3 to 5 days by stereomicroscopic analysis; assay type: functional, organism-based; details: time 3-5 day
# Candida albicans [10] = experiment: Anti-virulence activity against Candida albicans SC5314 assessed as inhibition of fungal filamentation by measuring reduction in hyphae formation in Lee medium upto 10 uM incubated for 3 to 5 days by stereomicroscopic analysis; assay type: functional, organism-based; details: time 3-5 day
# Candida albicans [11] = experiment: Anti-virulence activity against Candida albicans SC5314 assessed as inhibition of fungal filamentation by measuring reduction in hyphae formation in Spider medium upto 10 uM incubated for 3 to 5 days by stereomicroscopic analysis; assay type: functional, organism-based; details: time 3-5 day
# Candida albicans [12] = experiment: Anti-virulence activity against Candida albicans SC5314 assessed as inhibition of fungal filamentation by measuring reduction of hyphae formation in RPMI medium upto 10 uM incubated for 3 to 5 days by stereomicroscopic analysis; assay type: functional, organism-based; details: time 3-5 day
# Candida albicans [13] = experiment: Anti-virulence activity against Candida albicans SC5314 assessed as inhibition of fungal filamentation by measuring reduction in hyphae formation in GlcNAc medium upto 10 uM incubated for 3 to 5 days by stereomicroscopic analysis; assay type: functional, organism-based; details: time 3-5 day
# Candida albicans [14] = experiment: Anti-virulence activity against Candida albicans SC5314 assessed as inhibition of fungal filamentation by measuring reduction in hyphae formation in SLAD medium upto 10 uM incubated for 3 to 5 days by stereomicroscopic analysis; assay type: functional, organism-based; details: time 3-5 day
# [15] = Toxicity against zebrafish embryo infected with 53-75 RFP expressing cells of Candida albicans M137 assessed as mortality at 2.5 to 10 uM treated at 1 hr post-infection and measured on day 4 post-infection; design: species or system Danio rerio; details: 96 h, dose 2.5-10 µM, time 4 day
# [16] = Toxicity in zebrafish embryos assessed as toxic responses at 200 uM treated at 6 hpf and measured at 120 hpf by stereomicroscopic analysis; design: species or system Danio rerio; details: in vivo, 24 h
# [17] = Hepatotoxicity in zebrafish embryos assessed as liver darkening at 25 uM treated at 6 hpf and measured at 120 hpf by stereomicroscopic analysis; assay type: toxicity, Danio rerio; details: in vivo
# Candida albicans [18] = experiment: Anti-virulence activity against Candida albicans SC5314 assessed as inhibition of fungal filamentation by measuring reduction of hyphae formation in Spider medium at 1.3 uM incubated for 3 to 5 days by stereomicroscopic analysis; assay type: functional, organism-based; details: time 3-5 day
# Candida albicans [19] = experiment: Anti-virulence activity against Candida albicans SC5314 assessed as inhibition of fungal filamentation by measuring reduction of hyphae formation in YPS plus uridine medium at 1.3 uM incubated for 3 to 5 days by stereomicroscopic analysis; assay type: functional, organism-based; details: time 3-5 day
# Candida albicans [20] = experiment: Anti-virulence activity against Candida albicans SC5314 assessed as inhibition of fungal filamentation by measuring reduction of hyphae formation in RPMI medium at 1.3 uM incubated for 3 to 5 days by stereomicroscopic analysis; assay type: functional, organism-based; details: time 3-5 day
# Candida albicans [21] = experiment: Anti-virulence activity against Candida albicans SC5314 assessed as inhibition of fungal filamentation by measuring reduction of hyphae formation in SLAD medium at 1.3 uM incubated for 3 to 5 days by stereomicroscopic analysis; assay type: functional, organism-based; details: time 3-5 day
# Candida albicans [22] = experiment: Anti-virulence activity against Candida albicans SC5314 assessed as inhibition of fungal filamentation by measuring reduction of hyphae formation in Lee medium at 1.3 uM incubated for 3 to 5 days by stereomicroscopic analysis; assay type: functional, organism-based; details: time 3-5 day
# Candida albicans [23] = experiment: Anti-virulence activity against Candida albicans SC5314 assessed as inhibition of fungal filamentation by measuring reduction of hyphae formation in GlcNAc medium at 1.3 uM incubated for 3 to 5 days by stereomicroscopic analysis; assay type: functional, organism-based; details: time 3-5 day
# Candida albicans [24] = experiment: Anti-virulence activity against Candida albicans SC5314 assessed as inhibition of fungal filamentation by measuring reduction of hyphae formation in YPS medium at 1.3 uM incubated for 3 to 5 days by stereomicroscopic analysis; assay type: functional, organism-based; details: time 3-5 day
SMILES,Activity (Candida albicans [1]),MIC (Candida albicans [2]) [µM],Activity (Candida albicans [3]),Activity (Candida albicans [4]),LC50 [5] [µM],Activity (Candida albicans [6]),Activity (Candida albicans [7]),also measured
O=Cc1ccc(Nc2nnnn2Cc2ccccc2)cc1,Active,> 200,Active,Active,> 200,Active,Active,–
CC(=O)c1ccc(Nc2nnnn2Cc2ccccc2)cc1,–,> 200,–,–,> 200,–,–,–
c1ccc(Cn2nnnc2Nc2cccnc2)cc1,–,> 200,–,–,> 200,–,–,–
CCCn1nnnc1Nc1ccnc(Cl)n1,–,> 200,–,–,> 200,–,–,Activity (Candida albicans [8]): Active; Activity (Candida albicans [9]): Active; Activity (Candida albicans [10]): Active; Activity (Candida albicans [11]): Active; Activity (Candida albicans [12]): Active; Activity (Candida albicans [13]): Active; Activity (Candida albicans [14]): Active
COC(=O)c1cccc(Nc2nnnn2Cc2ccccc2)c1,–,35.4,–,–,–,–,–,–
CCCn1nnnc1N,Active,> 200,Active,Active,> 200,Active,Active,Activity [15]: Non-Toxic
Nc1nnn[nH]1,Active,> 200,Active,Active,> 200,Active,Active,Activity [15]: Non-Toxic; Activity [16]: Non-Toxic
Cc1cc(Cl)ccc1Nc1nnnn1Cc1ccccc1,–,6.4,–,–,–,–,–,–
c1ccc(Nc2nnnn2-c2ccccc2)cc1,Active,194,Active,Active,–,Active,Active,–
Nc1nnnn1Cc1ccccc1,Active,> 200,Active,Active,> 200,Active,Active,–
Nc1nnn(Cc2ccccc2)n1,–,> 200,–,–,> 200,–,–,–
Clc1cccc(Nc2nnnn2Cc2ccccc2)c1,–,> 200,–,–,> 200,–,–,–
c1ccc(Nc2nnn(CCC34CC5CC(CC(C5)C3)C4)n2)cc1,Active,> 200,Active,Active,> 200,Active,Active,–
Clc1nccc(Nc2nnnn2Cc2ccccc2)n1,–,35.4,–,–,–,–,–,Activity [17]: Toxic
O=[N+]([O-])c1ccc(Nc2nnnn2Cc2ccccc2)cc1,–,> 200,–,–,> 200,–,–,–
COc1ccc(Nc2nnnn2Cc2ccccc2)cc1,Active,> 200,Active,Active,> 200,Active,Active,–
Nc1nnn(CCC23CC4CC(CC(C4)C2)C3)n1,–,> 200,–,–,> 200,–,–,Activity (Candida albicans [8]): Active; Activity (Candida albicans [9]): Active; Activity (Candida albicans [10]): Active; Activity (Candida albicans [11]): Active; Activity (Candida albicans [12]): Active; Activity (Candida albicans [18]): Active; Activity (Candida albicans [19]): Active; Activity (Candida albicans [13]): Active; Activity (Candida albicans [20]): Active; Activity (Candida albicans [14]): Active; Activity (Candida albicans [21]): Active; Activity (Candida albicans [22]): Active; Activity (Candida albicans [23]): Active; Activity (Candida albicans [24]): Active
c1ccc(Nc2nn[nH]n2)cc1,–,> 200,–,–,> 200,–,–,Activity [16]: Non-Toxic
Clc1ccc(Nc2nnnn2Cc2ccccc2)cc1,–,> 200,–,–,> 200,–,–,–
Nc1nnnn1-c1ccccc1 [FENAMOLE],Active,> 200,Active,Active,> 200,Active,Active,–
c1ccc(Cn2nnnc2Nc2ccccc2)cc1,–,> 200,–,–,> 200,–,–,Activity (Candida albicans [8]): Active; Activity (Candida albicans [9]): Active; Activity (Candida albicans [10]): Active; Activity (Candida albicans [11]): Active; Activity (Candida albicans [12]): Active; Activity (Candida albicans [13]): Active; Activity (Candida albicans [14]): Active
c1ccc(Cn2nnc(Nc3ccccc3)n2)cc1,Active,> 200,Active,Active,> 200,Active,Active,–
N#Cc1ccc(Nc2nnnn2Cc2ccccc2)cc1,–,> 200,–,–,> 200,–,–,–
CCCn1nnnc1Nc1ccccc1,Active,> 200,Active,Active,> 200,Active,Active,–
CCCn1nnc(Nc2ccccc2)n1,Active,> 200,Active,Active,> 200,Active,Active,–
CN(C)CCCNc1nccc(Nc2nnnn2Cc2ccccc2)n1,–,> 200,–,–,> 200,–,–,–
CCCn1nnc(N)n1,–,> 200,–,–,> 200,–,–,–
